In ChEMBL document CHEMBL3885861, “Open TG-GATES”:

Species on record: Rattus norvegicus
Assay: Open TG-GATES - Regimen: Daily Repeat
Type: toxicity, organism-based, Sprague-Dawley
Design: regimen Daily Repeat, gender Male, age 6 weeks
Details: in vivo, po, 15 mg/kg, route gavage, dose level Low; for APTT / Bas / Eos / Fbg / Hb / Ht / Lym / MCHC / MCV / Mono / Neu / PT / Plat / RBC / Ret / WBC: tissue Blood; for KIDNEY_L / KIDNEY_R / KIDNEY_TOTAL: tissue Kidney; for LIVER: tissue Liver; for ALP / ALT / AST / BUN / CRE / Ca / Cl / DBIL / GLC / IP / K / LDH / Na / PL / RALB / TBIL / TC / TG / TP / gamma-GTP: tissue Plasma

C1CCC(C(CC2CCCCN2)C2CCCCC2)CC1 (centres undefined) [PERHEXILINE]
TERMINAL_BW (72 h, time 3 day): 221.1 g
APTT (72 h, time 3 day): 22 s
Bas (72 h, time 3 day): 0%
Eos (72 h, time 3 day): 0.8%
Fbg (72 h, time 3 day): 313.4 mg/dL
Hb (72 h, time 3 day): 13.4 g/dL
Ht (72 h, time 3 day): 39.5%
Lym (72 h, time 3 day): 82.4%
MCHC (72 h, time 3 day): 33.7%
MCV (72 h, time 3 day): 62.1 fL
Mono (72 h, time 3 day): 1.6%
Neu (72 h, time 3 day): 14.2%
PT (72 h, time 3 day): 16.6 s
Plat (72 h, time 3 day): 127.5 x10_4/uL
RBC (72 h, time 3 day): 637.8 x10_4/ul
Ret (72 h, time 3 day): 5.8%
WBC (72 h, time 3 day): 90.6 x10_2/uL
KIDNEY_L (72 h, time 3 day): 1 g
KIDNEY_R (72 h, time 3 day): 1 g
KIDNEY_TOTAL (72 h, time 3 day): 2 g
LIVER (72 h, time 3 day): 10.6 g
ALP (72 h, time 3 day): 1691.8 IU/L
ALT (72 h, time 3 day): 40.6 IU/L
AST (72 h, time 3 day): 69.8 IU/L
BUN (72 h, time 3 day): 16.2 mg/dL
CRE (72 h, time 3 day): 0.2 mg/dL
Ca (72 h, time 3 day): 10.8 mg/dL
Cl (72 h, time 3 day): 106.4 meq/L
DBIL (72 h, time 3 day): 0 mg/dL
GLC (72 h, time 3 day): 186.2 mg/dL
IP (72 h, time 3 day): 6.6 mg/dL
K (72 h, time 3 day): 4.2 meq/L
LDH (72 h, time 3 day): 253.2 IU/L
Na (72 h, time 3 day): 142.6 meq/L
PL (72 h, time 3 day): 150 mg/dL
RALB (72 h, time 3 day): 3.1 g/dL
TBIL (72 h, time 3 day): 0.008 mg/dL
TC (72 h, time 3 day): 74 mg/dL
TG (72 h, time 3 day): 131 mg/dL
TP (72 h, time 3 day): 5.7 g/dL
gamma-GTP (72 h, time 3 day): 1 IU/L
TERMINAL_BW ([…], time 7 day): 248.3 g
TERMINAL_BW ([…], time 14 day): 309.8 g
TERMINAL_BW ([…], time 28 day): 362.5 g
APTT ([…], time 7 day): 22.8 s
Bas ([…], time 7 day): 0%
Eos ([…], time 7 day): 1%
Fbg ([…], time 7 day): 313.2 mg/dL
Hb ([…], time 7 day): 13.6 g/dL
Ht ([…], time 7 day): 39.9%
Lym ([…], time 7 day): 79.4%
MCHC ([…], time 7 day): 34%
MCV ([…], time 7 day): 62.5 fL
Mono ([…], time 7 day): 2.2%
Neu ([…], time 7 day): 16.6%
PT ([…], time 7 day): 16 s
Plat ([…], time 7 day): 115.3 x10_4/uL
RBC ([…], time 7 day): 639.4 x10_4/ul
Ret ([…], time 7 day): 5.3%
WBC ([…], time 7 day): 110.7 x10_2/uL
APTT ([…], time 14 day): 23.1 s
Bas ([…], time 14 day): 0%
Eos ([…], time 14 day): 0.4%
Fbg ([…], time 14 day): 320.2 mg/dL
Hb ([…], time 14 day): 14.9 g/dL
Ht ([…], time 14 day): 42.6%
Lym ([…], time 14 day): 82.8%
MCHC ([…], time 14 day): 35%
MCV ([…], time 14 day): 60.8 fL
Mono ([…], time 14 day): 1.6%
Neu ([…], time 14 day): 13.8%
PT ([…], time 14 day): 16.1 s
Plat ([…], time 14 day): 112 x10_4/uL
RBC ([…], time 14 day): 702.2 x10_4/ul
Ret ([…], time 14 day): 3.7%
WBC ([…], time 14 day): 125.7 x10_2/uL
APTT ([…], time 28 day): 22.8 s
Bas ([…], time 28 day): 0%
Eos ([…], time 28 day): 1%
Fbg ([…], time 28 day): 313.2 mg/dL
Hb ([…], time 28 day): 13.6 g/dL
Ht ([…], time 28 day): 39.9%
Lym ([…], time 28 day): 79.4%
MCHC ([…], time 28 day): 34%
MCV ([…], time 28 day): 62.5 fL
Mono ([…], time 28 day): 2.2%
Neu ([…], time 28 day): 16.6%
PT ([…], time 28 day): 16 s
Plat ([…], time 28 day): 115.3 x10_4/uL
RBC ([…], time 28 day): 639.4 x10_4/ul
Ret ([…], time 28 day): 5.3%
WBC ([…], time 28 day): 110.7 x10_2/uL
KIDNEY_L ([…], time 7 day): 1.1 g
KIDNEY_R ([…], time 7 day): 1.1 g
KIDNEY_TOTAL ([…], time 7 day): 2.1 g
KIDNEY_L ([…], time 14 day): 1.2 g
KIDNEY_R ([…], time 14 day): 1.2 g
KIDNEY_TOTAL ([…], time 14 day): 2.4 g
KIDNEY_L ([…], time 28 day): 1.3 g
KIDNEY_R ([…], time 28 day): 1.3 g
KIDNEY_TOTAL ([…], time 28 day): 2.6 g
LIVER ([…], time 7 day): 12 g
LIVER ([…], time 14 day): 13 g
LIVER ([…], time 28 day): 14.5 g
ALP ([…], time 7 day): 1491.4 IU/L
ALT ([…], time 7 day): 41 IU/L
AST ([…], time 7 day): 70.8 IU/L
BUN ([…], time 7 day): 17 mg/dL
CRE ([…], time 7 day): 0.2 mg/dL
Ca ([…], time 7 day): 10.3 mg/dL
Cl ([…], time 7 day): 106.8 meq/L
DBIL ([…], time 7 day): 0 mg/dL
GLC ([…], time 7 day): 199.8 mg/dL
IP ([…], time 7 day): 7.2 mg/dL
K ([…], time 7 day): 4.2 meq/L
LDH ([…], time 7 day): 213.8 IU/L
Na ([…], time 7 day): 143.6 meq/L
PL ([…], time 7 day): 157.8 mg/dL
RALB ([…], time 7 day): 3 g/dL
TBIL ([…], time 7 day): 0.004 mg/dL
TC ([…], time 7 day): 75 mg/dL
TG ([…], time 7 day): 162.4 mg/dL
TP ([…], time 7 day): 5.7 g/dL
gamma-GTP ([…], time 7 day): 1.6 IU/L
ALP ([…], time 14 day): 1618.8 IU/L
ALT ([…], time 14 day): 41.2 IU/L
AST ([…], time 14 day): 73.8 IU/L
BUN ([…], time 14 day): 18.6 mg/dL
CRE ([…], time 14 day): 0.2 mg/dL
Ca ([…], time 14 day): 10.5 mg/dL
Cl ([…], time 14 day): 107 meq/L
DBIL ([…], time 14 day): 0 mg/dL
GLC ([…], time 14 day): 191.8 mg/dL
IP ([…], time 14 day): 6.1 mg/dL
K ([…], time 14 day): 4.1 meq/L
LDH ([…], time 14 day): 207.4 IU/L
Na ([…], time 14 day): 143.8 meq/L
PL ([…], time 14 day): 145.4 mg/dL
RALB ([…], time 14 day): 3.2 g/dL
TBIL ([…], time 14 day): 0.004 mg/dL
TC ([…], time 14 day): 65.4 mg/dL
TG ([…], time 14 day): 177.2 mg/dL
TP ([…], time 14 day): 6 g/dL
gamma-GTP ([…], time 14 day): 1.6 IU/L
ALP ([…], time 28 day): 1153.2 IU/L
ALT ([…], time 28 day): 39.4 IU/L
AST ([…], time 28 day): 63.6 IU/L
BUN ([…], time 28 day): 18.2 mg/dL
CRE ([…], time 28 day): 0.2 mg/dL
Ca ([…], time 28 day): 10.3 mg/dL
Cl ([…], time 28 day): 108 meq/L
DBIL ([…], time 28 day): 0.002 mg/dL
GLC ([…], time 28 day): 191 mg/dL
IP ([…], time 28 day): 6.4 mg/dL
K ([…], time 28 day): 4 meq/L
LDH ([…], time 28 day): 156 IU/L
Na ([…], time 28 day): 144.4 meq/L
PL ([…], time 28 day): 138.6 mg/dL
RALB ([…], time 28 day): 3.2 g/dL
TBIL ([…], time 28 day): 0.012 mg/dL
TC ([…], time 28 day): 63.2 mg/dL
TG ([…], time 28 day): 130.2 mg/dL
TP ([…], time 28 day): 6.2 g/dL
gamma-GTP ([…], time 28 day): 1.2 IU/L
